Laboratory results: ChEMBL document CHEMBL1133275, “Synthesis of the nucleoside moiety of liposidomycins: elucidation of the pharmacophore of this family of MraY inhibitors” (Bioorg Med Chem Lett, 2000)
pIC50: −log10 of the molar value.

Assays:
[1] = The inhibitory activity determined by using toluene-permeabilized cells of Escherichia coli and the specific nucleoside substrate of the translocase UMA5
[2] = Inhibitory activity of compound was determined against bacterial translocase

pIC50 [1] | Structure (SMILES) | pIC50 [2]
4.30 | NC[C@H]1O[C@@H](OC[C@H]2O[C@@H](n3ccc(=O)[nH]c3=O)[C@H](O)[C@@H]2O)[C@H](O)[C@@H]1O | 
 | NC[C@H]1O[C@@H](O[C@@H](CO)[C@H]2O[C@@H](n3ccc(=O)[nH]c3=O)[C@H](O)[C@@H]2O)[C@H](O)[C@@H]1O | 3.37
 | NC[C@H]1O[C@@H](O[C@H](CO)[C@H]2O[C@@H](n3ccc(=O)[nH]c3=O)[C@H](O)[C@@H]2O)[C@H](O)[C@@H]1O | 5.30
 | CSCCC(NC(=O)NC(Cc1cccc(O)c1)C(=O)O)C(=O)NC(C(=O)N/C=C1/CC(O)C(N2CCC(=O)NC2=O)O1)C(C)N(C)C(=O)C(N)Cc1cccc(O)c1 (stereo not given) | 7.19
 | CC(=O)N[C@H]1[C@@H](O[C@@H]2O[C@H](CC(O)[C@H]3O[C@@H](n4ccc(=O)[nH]c4=O)[C@H](O)[C@@H]3O)[C@H](O)[C@H](O)[C@H]2NC(=O)/C=C/CC(C)C)O[C@H](CO)[C@@H](N)[C@@H]1O (stereo not given in full) [TUNICAMYCIN] | 6.32
